“Also recorded” adds a separate entry of the source. Starred links: 1 amine or outer side, 2 acyl side, 3 side chain; linkers in the order of their positions; H or OH if unused. Positions of bridges follow the written chain, without caps; N, C: chain ends. Non-standard residues stand in square brackets, D forms with d. Residues, ends and D or L forms follow the SMILES beside them. *: point of attachment. Orn(4R-OH,5R-OCH2CH2NMe3+) = C[N+](C)(C)CCO[C@@H](N[*:3])[C@H](O)C[C@H](N[*:1])C(=O)[*:2]; pTerphenylCO(4''-OnC5H11) = CCCCCOc1ccc(-c2ccc(-c3ccc(C(=O)*)cc3)cc2)cc1; hTyr(3S-OH,4S-OH) = N[C@H](C(=O)O)[C@H](O)[C@@H](O)c1ccc(O)cc1; Pro(3S-OH,4S-Me) = C[C@H]1CN[C@H](C(=O)O)[C@H]1O; Hyp = O=C(O)[C@@H]1C[C@@H](O)CN1
Columns and labels:
cynomolgus monkeys = assay: Single-dose intravenous infusion tolerability study; format: in vivo
Procedure: The objective of this study was to evaluate and compare the tolerability of CD101 when administered once by either a 20-minute or 60-minute intravenous infusion to cynomolgus monkeys. In addition, a vehicle similar to the intended initial clinical formulation was assessed when administered once by 20-minute intravenous infusion up to the highest feasible dose (10 mg/kg).
This study was divided into 2 phases (Table 8). In phase 1, CD101 acetate was administered in vehicle-1 (1.25% Tween 80, 5% mannitol, 0.3% glacial acetic acid adjusted to pH 4.5±0.1) as a single 20-minute (±2 minutes) intravenous infusion to 1 animal/sex/group at 0 and 30 mg/kg (Groups 1 and 2, respectively). In addition, CD101 acetate was administered in vehicle-1 as a single 60-minute (±5 minutes) intravenous infusion to 1 animal/sex/group at 0 and 30 mg/kg (Groups 3 and 4, respectively).
Dosing was staggered so that Group 5 was dosed 2 days after Groups 1-4.

[1] = PBS drop test of CD101 IV formulations (Example 4); format: physicochemical; details: 2 mg/mL in 0.50% Tween 80, 0.76% mannitol, 0.125% sodium lactate in 3.5% dextrose solution, pH ~5.5; 0.25 mL into 1 mL PBS
Procedure: Solubility of CD101-containing formulations with different percentages of Tween 80 (also referred to as polysorbate 80) was evaluated in a “PBS drop test.” This involved preparing a known concentration of CD101 in a formulation and injecting the formulation into PBS to visually examine for precipitation. This test was used to assess if a CD101-containing formulation would remain soluble in blood during IV infusions.
(1) 1.25% Tween 80, 5% mannitol, 0.3% glacial acetic acid, pH ˜4.5
(2) 0.50% Tween 80, 0.76% mannitol, 0.125% sodium lactate in 3.5% dextrose solution, pH ˜5.5
Different concentrations of CD101 acetate were prepared in vehicles (1) and (2) and tested for solubility in the PBS drop test.
Add dropwise the formulated solution into PBS solution (1:4 dilution). Visually observe the resulting solution upon addition for any precipitation.

CCCCCOc1ccc(-c2ccc(-c3ccc(C(=O)N[C@H]4C[C@@H](O)[C@@H](OCC[N+](C)(C)C)NC(=O)[C@@H]5[C@@H](O)[C@@H](C)CN5C(=O)[C@H]([C@@H](C)O)NC(=O)[C@H]([C@H](O)[C@@H](O)c5ccc(O)cc5)NC(=O)[C@@H]5C[C@@H](O)CN5C(=O)[C@H]([C@@H](C)O)NC4=O)cc3)cc2)cc1 [CD101 acetate] ({pTerphenylCO(4''-OnC5H11)}-[Orn(4R-OH,5R-OCH2CH2NMe3+)]T[Hyp][hTyr(3S-OH,4S-OH)]T[Pro(3S-OH,4S-Me)]; lactam 1-C)
Tolerability in vehicle similar to intended clinical formulation (cynomolgus monkeys; 10 mg/kg (highest feasible dose), 20-minute IV infusion in vehicle-2 (0.50% Tween 80, 0.76% mannitol, 0.125% sodium lactate in 3.5% dextrose, pH 5.5)): can be administered safely | Tolerability of 20-minute versus 60-minute infusion (cynomolgus monkeys; single IV infusion 30 mg/kg in vehicle-1 (1.25% Tween 80, 5% mannitol, 0.3% glacial acetic acid, pH 4.5)): no differences that could be attributed to the duration of infusion; also recorded: no differences between the tolerability of a 20-minute and 60-minute infusion | Clinical observations (cynomolgus monkeys; single IV infusion, 30 mg/kg in vehicle-1 (20 or 60 min) or 10 mg/kg in vehicle-2 (20 min)): No other remarkable clinical observations | Time the formulated solution remained soluble in PBS [1]: at least 1 hour

From patent publication US11819533B2, “Compositions and methods for the treatment of fungal infections” (Cidara Therapeutics, Inc., priority 2017, dated 2023)
